Data taken from ChEMBL document CHEMBL3991601, “The target landscape of clinical kinase drugs” (Science, 2017).
Calls of active or inactive are those of the source. Cut-off read from the data, not from the text of the source, for most assays here: actives have a measured Kd and inactives only a lower limit.

Columns and labels:
[1] = target: Deoxycytidine kinase (Homo sapiens, UniProt P27707)
[2] = target: Ribosomal protein S6 kinase alpha-4 (Homo sapiens, UniProt O75676)
[3] = target: T1, ATP-dependent 6-phosphofructokinase, platelet type (Homo sapiens, UniProt Q01813)
T1 sequence (Q01813 whole entry): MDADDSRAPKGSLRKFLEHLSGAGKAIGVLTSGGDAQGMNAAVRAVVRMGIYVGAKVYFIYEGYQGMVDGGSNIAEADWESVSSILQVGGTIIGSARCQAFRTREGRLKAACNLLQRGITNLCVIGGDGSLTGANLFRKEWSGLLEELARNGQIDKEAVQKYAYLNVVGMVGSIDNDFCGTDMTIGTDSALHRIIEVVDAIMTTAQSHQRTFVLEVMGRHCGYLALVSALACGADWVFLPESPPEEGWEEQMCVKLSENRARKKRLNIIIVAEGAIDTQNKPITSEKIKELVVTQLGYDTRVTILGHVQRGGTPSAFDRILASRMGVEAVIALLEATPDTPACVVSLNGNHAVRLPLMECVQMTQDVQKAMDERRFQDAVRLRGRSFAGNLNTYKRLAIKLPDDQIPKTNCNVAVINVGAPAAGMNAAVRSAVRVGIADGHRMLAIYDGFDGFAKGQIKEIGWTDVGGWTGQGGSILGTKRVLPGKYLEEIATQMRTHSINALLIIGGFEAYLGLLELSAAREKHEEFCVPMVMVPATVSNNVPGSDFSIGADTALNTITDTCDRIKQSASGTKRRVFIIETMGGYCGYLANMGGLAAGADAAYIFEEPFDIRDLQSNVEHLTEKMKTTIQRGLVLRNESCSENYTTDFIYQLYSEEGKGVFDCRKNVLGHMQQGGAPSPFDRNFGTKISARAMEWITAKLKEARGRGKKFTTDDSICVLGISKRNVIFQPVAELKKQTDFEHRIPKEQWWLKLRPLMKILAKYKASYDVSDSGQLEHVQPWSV

[4] = target: STE20-like serine/threonine-protein kinase (Homo sapiens, UniProt Q9H2G2)
[5] = target: Non-receptor tyrosine-protein kinase TYK2 (Homo sapiens, UniProt P29597)
[6] = target: T2, Mitogen-activated protein kinase kinase kinase 2 (Homo sapiens, UniProt Q9Y2U5)
T2 sequence (Q9Y2U5 whole entry): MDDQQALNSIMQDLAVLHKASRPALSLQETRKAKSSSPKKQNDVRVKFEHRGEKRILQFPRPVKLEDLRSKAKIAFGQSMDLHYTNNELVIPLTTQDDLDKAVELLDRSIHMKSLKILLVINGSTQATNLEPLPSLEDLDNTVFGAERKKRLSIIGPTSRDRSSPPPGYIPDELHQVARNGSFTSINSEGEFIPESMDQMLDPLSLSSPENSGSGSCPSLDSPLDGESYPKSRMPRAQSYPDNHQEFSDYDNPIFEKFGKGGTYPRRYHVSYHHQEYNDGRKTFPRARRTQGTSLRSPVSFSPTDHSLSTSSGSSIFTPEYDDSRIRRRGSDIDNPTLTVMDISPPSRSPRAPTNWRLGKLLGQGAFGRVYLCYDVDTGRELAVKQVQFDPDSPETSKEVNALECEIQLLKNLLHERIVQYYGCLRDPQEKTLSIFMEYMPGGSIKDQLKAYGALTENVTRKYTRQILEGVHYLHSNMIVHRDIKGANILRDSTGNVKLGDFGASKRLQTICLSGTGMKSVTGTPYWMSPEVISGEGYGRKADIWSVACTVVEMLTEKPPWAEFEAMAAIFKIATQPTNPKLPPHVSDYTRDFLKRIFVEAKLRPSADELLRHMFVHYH

[7] = target: Tyrosine-protein kinase Fer (Homo sapiens, UniProt P16591)
Sequence of Tyrosine-protein kinase Fer (P16591 whole entry): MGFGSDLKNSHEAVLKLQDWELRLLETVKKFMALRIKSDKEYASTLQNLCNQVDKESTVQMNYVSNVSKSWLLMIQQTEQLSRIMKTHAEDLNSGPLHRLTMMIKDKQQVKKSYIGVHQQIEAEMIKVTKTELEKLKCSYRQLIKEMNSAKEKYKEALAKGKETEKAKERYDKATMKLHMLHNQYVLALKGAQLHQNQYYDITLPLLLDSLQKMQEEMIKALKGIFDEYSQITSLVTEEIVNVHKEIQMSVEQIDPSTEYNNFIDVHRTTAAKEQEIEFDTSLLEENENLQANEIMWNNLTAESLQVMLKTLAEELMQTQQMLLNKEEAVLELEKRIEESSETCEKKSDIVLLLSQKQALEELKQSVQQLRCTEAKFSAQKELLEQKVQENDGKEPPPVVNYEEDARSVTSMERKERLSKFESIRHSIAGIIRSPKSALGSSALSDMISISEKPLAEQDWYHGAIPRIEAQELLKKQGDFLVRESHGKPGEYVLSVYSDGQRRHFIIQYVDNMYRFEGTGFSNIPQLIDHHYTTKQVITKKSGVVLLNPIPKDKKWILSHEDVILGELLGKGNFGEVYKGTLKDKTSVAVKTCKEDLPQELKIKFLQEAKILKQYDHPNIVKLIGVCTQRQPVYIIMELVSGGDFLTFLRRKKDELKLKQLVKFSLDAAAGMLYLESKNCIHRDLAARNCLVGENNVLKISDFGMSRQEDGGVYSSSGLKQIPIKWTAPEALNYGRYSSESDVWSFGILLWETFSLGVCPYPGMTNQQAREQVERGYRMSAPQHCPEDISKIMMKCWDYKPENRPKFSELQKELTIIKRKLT

[8] = target: MAP kinase-activated protein kinase 2 (Homo sapiens, UniProt P49137)
Sequence of MAP kinase-activated protein kinase 2 (P49137 whole entry): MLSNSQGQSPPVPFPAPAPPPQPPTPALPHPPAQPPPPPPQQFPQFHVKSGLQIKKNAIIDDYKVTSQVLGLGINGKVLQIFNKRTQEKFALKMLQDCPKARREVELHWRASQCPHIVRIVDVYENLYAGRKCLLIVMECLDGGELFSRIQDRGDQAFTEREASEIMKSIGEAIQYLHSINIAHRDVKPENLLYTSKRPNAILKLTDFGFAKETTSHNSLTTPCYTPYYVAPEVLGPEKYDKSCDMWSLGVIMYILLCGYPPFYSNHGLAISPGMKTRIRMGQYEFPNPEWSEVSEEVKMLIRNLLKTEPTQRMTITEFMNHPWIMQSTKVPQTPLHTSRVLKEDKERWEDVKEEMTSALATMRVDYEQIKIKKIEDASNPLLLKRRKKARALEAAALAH

[9] = target: Tyrosine-protein kinase Lyn (Homo sapiens, UniProt P07948)
Sequence of Tyrosine-protein kinase Lyn (P07948 whole entry): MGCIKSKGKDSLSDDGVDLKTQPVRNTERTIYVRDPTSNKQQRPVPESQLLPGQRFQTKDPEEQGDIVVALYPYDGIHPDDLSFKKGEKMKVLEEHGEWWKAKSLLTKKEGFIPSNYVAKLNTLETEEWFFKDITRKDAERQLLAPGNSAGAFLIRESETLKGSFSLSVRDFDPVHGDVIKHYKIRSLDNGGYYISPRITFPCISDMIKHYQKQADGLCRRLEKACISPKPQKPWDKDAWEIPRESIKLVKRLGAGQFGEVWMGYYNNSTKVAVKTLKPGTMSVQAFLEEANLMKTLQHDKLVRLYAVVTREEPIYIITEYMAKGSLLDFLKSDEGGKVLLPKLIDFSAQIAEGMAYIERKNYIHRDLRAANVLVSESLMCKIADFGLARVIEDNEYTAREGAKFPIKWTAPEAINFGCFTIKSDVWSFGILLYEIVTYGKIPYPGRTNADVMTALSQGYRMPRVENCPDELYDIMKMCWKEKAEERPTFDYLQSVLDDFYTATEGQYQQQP

[10] = target: ATP-dependent RNA helicase DDX3X (Homo sapiens, UniProt O00571)
Sequence of ATP-dependent RNA helicase DDX3X (O00571 whole entry): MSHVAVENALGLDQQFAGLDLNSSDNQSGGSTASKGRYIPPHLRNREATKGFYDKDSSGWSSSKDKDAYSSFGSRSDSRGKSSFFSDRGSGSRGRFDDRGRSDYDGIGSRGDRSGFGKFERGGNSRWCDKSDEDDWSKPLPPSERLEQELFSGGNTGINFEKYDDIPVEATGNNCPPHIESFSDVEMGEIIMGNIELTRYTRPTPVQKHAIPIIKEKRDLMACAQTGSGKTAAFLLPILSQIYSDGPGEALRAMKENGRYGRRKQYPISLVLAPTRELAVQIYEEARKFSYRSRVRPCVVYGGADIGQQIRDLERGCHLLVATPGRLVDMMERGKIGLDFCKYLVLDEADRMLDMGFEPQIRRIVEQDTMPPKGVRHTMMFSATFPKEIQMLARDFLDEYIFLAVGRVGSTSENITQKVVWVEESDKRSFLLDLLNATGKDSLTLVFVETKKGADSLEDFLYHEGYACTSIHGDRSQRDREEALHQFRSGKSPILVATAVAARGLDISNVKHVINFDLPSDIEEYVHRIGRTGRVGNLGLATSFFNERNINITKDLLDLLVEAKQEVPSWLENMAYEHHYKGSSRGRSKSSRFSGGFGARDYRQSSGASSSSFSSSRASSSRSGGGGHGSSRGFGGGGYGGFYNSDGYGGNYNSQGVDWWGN

[11] = target: Atypical kinase COQ8A, mitochondrial (Homo sapiens, UniProt Q8NI60)
[12] = target: Mitogen-activated protein kinase kinase kinase 1 (Homo sapiens, UniProt Q13233)
Sequence of Mitogen-activated protein kinase kinase kinase 1 (Q13233 whole entry): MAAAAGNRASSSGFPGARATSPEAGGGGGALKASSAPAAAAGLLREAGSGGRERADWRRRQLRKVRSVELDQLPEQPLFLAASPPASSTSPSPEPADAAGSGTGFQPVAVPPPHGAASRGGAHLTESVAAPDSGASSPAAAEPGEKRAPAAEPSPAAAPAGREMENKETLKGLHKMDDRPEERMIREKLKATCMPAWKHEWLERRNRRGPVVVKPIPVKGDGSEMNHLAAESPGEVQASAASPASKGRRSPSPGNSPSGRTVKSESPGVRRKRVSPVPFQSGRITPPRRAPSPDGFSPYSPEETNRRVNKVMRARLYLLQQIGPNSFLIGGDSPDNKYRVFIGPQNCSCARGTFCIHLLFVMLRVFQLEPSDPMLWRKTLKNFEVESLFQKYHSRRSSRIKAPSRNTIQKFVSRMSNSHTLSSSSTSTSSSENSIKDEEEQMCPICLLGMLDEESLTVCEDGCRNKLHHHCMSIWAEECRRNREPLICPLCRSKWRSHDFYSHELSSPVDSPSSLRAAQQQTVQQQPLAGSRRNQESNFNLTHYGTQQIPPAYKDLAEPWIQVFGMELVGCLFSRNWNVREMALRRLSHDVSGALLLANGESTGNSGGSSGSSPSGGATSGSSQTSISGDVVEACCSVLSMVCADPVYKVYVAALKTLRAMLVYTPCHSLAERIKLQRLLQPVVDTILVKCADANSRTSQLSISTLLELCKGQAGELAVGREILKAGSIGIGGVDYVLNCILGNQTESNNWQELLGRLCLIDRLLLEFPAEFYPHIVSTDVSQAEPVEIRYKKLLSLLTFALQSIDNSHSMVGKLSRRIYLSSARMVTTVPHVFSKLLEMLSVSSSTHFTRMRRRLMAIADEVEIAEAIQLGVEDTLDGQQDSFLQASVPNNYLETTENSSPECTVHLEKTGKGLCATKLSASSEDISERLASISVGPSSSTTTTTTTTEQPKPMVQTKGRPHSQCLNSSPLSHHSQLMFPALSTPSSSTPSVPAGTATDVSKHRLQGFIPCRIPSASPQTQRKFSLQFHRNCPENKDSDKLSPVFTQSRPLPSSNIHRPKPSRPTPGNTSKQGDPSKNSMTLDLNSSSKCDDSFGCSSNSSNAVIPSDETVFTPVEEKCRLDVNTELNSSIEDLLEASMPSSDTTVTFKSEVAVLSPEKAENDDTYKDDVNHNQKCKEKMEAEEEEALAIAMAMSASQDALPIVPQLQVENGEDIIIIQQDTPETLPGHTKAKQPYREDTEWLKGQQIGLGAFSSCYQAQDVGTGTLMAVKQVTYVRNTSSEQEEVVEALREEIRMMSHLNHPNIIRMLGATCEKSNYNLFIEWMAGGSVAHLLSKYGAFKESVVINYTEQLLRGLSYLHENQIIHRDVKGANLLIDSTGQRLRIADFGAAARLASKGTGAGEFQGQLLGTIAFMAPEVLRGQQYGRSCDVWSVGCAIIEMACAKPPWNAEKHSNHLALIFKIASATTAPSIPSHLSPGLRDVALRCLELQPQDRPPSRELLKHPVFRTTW

[13] = target: T3, Serine/threonine-protein kinase TAO1 (Homo sapiens, UniProt Q7L7X3)
T3 sequence (Q7L7X3 whole entry): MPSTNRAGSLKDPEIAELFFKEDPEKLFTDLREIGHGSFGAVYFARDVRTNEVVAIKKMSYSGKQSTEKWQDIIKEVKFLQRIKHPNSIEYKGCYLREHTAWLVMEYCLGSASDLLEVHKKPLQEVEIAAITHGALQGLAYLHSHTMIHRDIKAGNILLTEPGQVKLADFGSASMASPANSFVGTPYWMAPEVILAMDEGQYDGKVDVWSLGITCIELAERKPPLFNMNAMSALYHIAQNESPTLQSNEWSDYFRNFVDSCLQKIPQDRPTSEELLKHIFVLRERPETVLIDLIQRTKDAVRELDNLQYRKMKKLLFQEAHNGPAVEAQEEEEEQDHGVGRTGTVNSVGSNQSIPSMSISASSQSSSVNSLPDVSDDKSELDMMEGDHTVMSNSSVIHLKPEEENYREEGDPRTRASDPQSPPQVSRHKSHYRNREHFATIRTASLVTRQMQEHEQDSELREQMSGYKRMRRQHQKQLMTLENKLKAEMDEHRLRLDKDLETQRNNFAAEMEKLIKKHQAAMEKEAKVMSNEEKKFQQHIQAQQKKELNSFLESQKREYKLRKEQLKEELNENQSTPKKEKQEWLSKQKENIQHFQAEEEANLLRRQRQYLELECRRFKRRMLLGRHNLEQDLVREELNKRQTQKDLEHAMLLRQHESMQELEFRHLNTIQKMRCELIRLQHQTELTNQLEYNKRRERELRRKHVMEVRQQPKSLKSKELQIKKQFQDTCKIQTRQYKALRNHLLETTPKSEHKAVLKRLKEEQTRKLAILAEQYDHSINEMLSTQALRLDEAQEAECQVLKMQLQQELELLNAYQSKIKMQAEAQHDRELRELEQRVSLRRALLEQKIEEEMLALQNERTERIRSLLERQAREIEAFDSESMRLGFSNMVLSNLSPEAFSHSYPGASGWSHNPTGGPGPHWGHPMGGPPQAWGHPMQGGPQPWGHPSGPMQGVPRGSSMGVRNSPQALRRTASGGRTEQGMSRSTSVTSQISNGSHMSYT
Note: in the data inactive means no Kd found up to 30 µM.

Sequence of Deoxycytidine kinase (P27707 whole entry): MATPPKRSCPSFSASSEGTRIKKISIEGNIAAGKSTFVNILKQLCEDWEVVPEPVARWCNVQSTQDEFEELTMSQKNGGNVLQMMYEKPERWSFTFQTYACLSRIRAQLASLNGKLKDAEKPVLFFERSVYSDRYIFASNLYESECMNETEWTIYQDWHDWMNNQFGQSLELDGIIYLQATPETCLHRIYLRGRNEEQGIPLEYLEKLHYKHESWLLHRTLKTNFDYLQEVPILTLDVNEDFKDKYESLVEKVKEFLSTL
Sequence of Ribosomal protein S6 kinase alpha-4 (O75676 whole entry): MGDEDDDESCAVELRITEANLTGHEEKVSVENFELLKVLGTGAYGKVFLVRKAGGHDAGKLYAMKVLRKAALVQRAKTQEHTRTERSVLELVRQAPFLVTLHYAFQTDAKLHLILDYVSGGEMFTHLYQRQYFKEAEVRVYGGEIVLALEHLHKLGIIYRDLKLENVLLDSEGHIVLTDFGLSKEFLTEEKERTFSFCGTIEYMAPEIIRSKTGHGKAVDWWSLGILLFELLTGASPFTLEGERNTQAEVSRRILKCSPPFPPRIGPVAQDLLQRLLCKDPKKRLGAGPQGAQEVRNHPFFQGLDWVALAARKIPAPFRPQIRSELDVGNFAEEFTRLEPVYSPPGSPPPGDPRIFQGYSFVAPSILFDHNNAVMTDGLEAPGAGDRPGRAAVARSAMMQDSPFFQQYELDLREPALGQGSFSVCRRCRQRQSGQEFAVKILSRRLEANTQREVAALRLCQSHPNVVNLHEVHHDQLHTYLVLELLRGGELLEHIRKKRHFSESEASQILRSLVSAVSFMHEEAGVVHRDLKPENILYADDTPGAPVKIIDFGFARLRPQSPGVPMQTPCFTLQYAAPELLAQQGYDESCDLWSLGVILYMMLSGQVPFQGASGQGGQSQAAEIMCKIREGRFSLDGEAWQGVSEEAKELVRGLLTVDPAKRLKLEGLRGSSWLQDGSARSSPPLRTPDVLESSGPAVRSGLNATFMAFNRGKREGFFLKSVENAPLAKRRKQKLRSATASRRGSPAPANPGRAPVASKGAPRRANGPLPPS

Row | Compound | Kd [1] | Kd [2] | Kd [3] | Kd [4] | Kd [5] | Kd [6] | Kd [7] | Kd [8] | Kd [9] | Kd [10] | Kd [11] | Kd [12] | Kd [13]
1 | COc1cc(CCc2cc(NC(=O)c3ccc(N4C[C@@H](C)N[C@@H](C)C4)cc3)n[nH]2)cc(OC)c1 [AZD-4547] | > 30 µM (inactive) | > 30 µM (inactive) | > 30 µM (inactive) | > 30 µM (inactive) | > 30 µM (inactive) | > 30 µM (inactive) | > 30 µM (inactive) | > 30 µM (inactive) | > 30 µM (inactive) | > 30 µM (inactive) | > 30 µM (inactive) | > 30 µM (inactive) | > 30 µM (inactive)
2 | Cc1cc([C@@H](C)Nc2ccccc2C(=O)O)c2nc(N3CCOCC3)cc(=O)n2c1 [AZD-6482] | > 30 µM (inactive) | > 30 µM (inactive) | > 30 µM (inactive) | > 30 µM (inactive) | > 30 µM (inactive) | > 30 µM (inactive) | > 30 µM (inactive) | > 30 µM (inactive) | > 30 µM (inactive) | > 30 µM (inactive) | > 30 µM (inactive) | > 30 µM (inactive) | > 30 µM (inactive)
3 | COc1ccc(-c2ccc3c(N4CCOC[C@@H]4C)nc(N4CCOC[C@@H]4C)nc3n2)cc1CO [AZD-8055] | > 30 µM (inactive) | > 30 µM (inactive) | > 30 µM (inactive) | > 30 µM (inactive) | > 30 µM (inactive) | > 30 µM (inactive) | > 30 µM (inactive) | > 30 µM (inactive) | > 30 µM (inactive) | > 30 µM (inactive) | > 30 µM (inactive) | > 30 µM (inactive) | > 30 µM (inactive)
4 | C[C@@H](Nc1cc(F)cc(F)c1)c1cc(C(=O)N(C)C)cc2c(=O)cc(N3CCOCC3)oc12 [AZD-8186] | > 30 µM (inactive) | > 30 µM (inactive) | > 30 µM (inactive) | > 30 µM (inactive) | > 30 µM (inactive) | > 30 µM (inactive) | > 30 µM (inactive) | > 30 µM (inactive) | > 30 µM (inactive) | > 30 µM (inactive) | > 30 µM (inactive) | > 30 µM (inactive) | > 30 µM (inactive)
5 | CCS(=O)(=O)N1CC(CC#N)(n2cc(-c3ncnc4[nH]ccc34)cn2)C1 [BARICITINIB] | > 30 µM (inactive) | > 30 µM (inactive) | > 30 µM (inactive) | > 30 µM (inactive) | > 30 µM (inactive) | > 30 µM (inactive) | > 30 µM (inactive) | > 30 µM (inactive) | > 30 µM (inactive) | > 30 µM (inactive) | > 30 µM (inactive) | 1.89 µM (active) | > 30 µM (inactive)
6 | Cc1cc2c(F)c(Oc3ncnn4cc(OC[C@@H](C)OC(=O)[C@H](C)N)c(C)c34)ccc2[nH]1 [BRIVANIB ALANINATE] | > 30 µM (inactive) | > 30 µM (inactive) | > 30 µM (inactive) | 9.49 µM (active) | > 30 µM (inactive) | > 30 µM (inactive) | > 30 µM (inactive) | > 30 µM (inactive) | > 30 µM (inactive) | > 30 µM (inactive) | > 30 µM (inactive) | > 30 µM (inactive) | > 30 µM (inactive)
7 | O=C(c1ccc(F)c(F)c1Nc1ccc(I)cc1F)N1CC(O)([C@@H]2CCCCN2)C1 [COBIMETINIB] | > 30 µM (inactive) | > 30 µM (inactive) | > 30 µM (inactive) | > 30 µM (inactive) | > 30 µM (inactive) | > 30 µM (inactive) | > 30 µM (inactive) | > 30 µM (inactive) | > 30 µM (inactive) | > 30 µM (inactive) | > 30 µM (inactive) | > 30 µM (inactive) | > 30 µM (inactive)
8 | COC(=O)N[C@@H](C)CNc1nccc(-c2cn(C(C)C)nc2-c2cc(Cl)cc(NS(C)(=O)=O)c2F)n1 [ENCORAFENIB] | > 30 µM (inactive) | > 30 µM (inactive) | > 30 µM (inactive) | > 30 µM (inactive) | > 30 µM (inactive) | > 30 µM (inactive) | > 30 µM (inactive) | 14.7 µM (active) | > 30 µM (inactive) | > 30 µM (inactive) | > 30 µM (inactive) | > 30 µM (inactive) | > 30 µM (inactive)
9 | CO[C@H]1C[C@@H]2CC[C@@H](C)[C@@](O)(O2)C(=O)C(=O)N2CCCC[C@H]2C(=O)O[C@H]([C@H](C)C[C@@H]2CC[C@@H](OCCO)[C@H](OC)C2)CC(=O)[C@H](C)/C=C(\C)[C@@H](O)[C@@H](OC)C(=O)[C@H](C)C[C@H](C)/C=C/C=C/C=C/1C [EVEROLIMUS] | > 30 µM (inactive) | > 30 µM (inactive) | > 30 µM (inactive) | > 30 µM (inactive) | > 30 µM (inactive) | > 30 µM (inactive) | > 30 µM (inactive) | > 30 µM (inactive) | > 30 µM (inactive) | > 30 µM (inactive) | > 30 µM (inactive) | > 30 µM (inactive) | > 30 µM (inactive)
10 | O=C1NC(=O)/C(=C/c2ccc3nccc(-c4ccncc4)c3c2)S1 [GSK-1059615] | > 30 µM (inactive) | 0.499 µM (active) | > 30 µM (inactive) | 4.32 µM (active) | > 30 µM (inactive) | > 30 µM (inactive) | > 30 µM (inactive) | > 30 µM (inactive) | > 30 µM (inactive) | > 30 µM (inactive) | > 30 µM (inactive) | > 30 µM (inactive) | 0.002 µM (active)
